Paper PMC10538174, “Bioactivity-Guided Synthesis: In Silico and In Vitro Studies of β-Glucosidase Inhibitors to Cope with Hepatic Cytotoxicity” (Molecules, 2023)

Experiments:
[1] = tested on: β-glucosidase from E. coli; experiment: β-glucosidase enzyme inhibition assay (p-nitrophenyl-β-D-glucopyranoside substrate); format: biochemical; conditions: for % inhibition ± SD against β-glucosidase: test concentration not given; for IC50: E. coli enzyme, pH 6.8, 37 °C, read at 405 nm, read-out: IC50 ± SEM against β-glucosidase
Description: β-glucosidase inhibition activity of the synthesized compounds, with an enzyme concentration of […] were used for the inhibition assay. The IC50 values were determined at different concentrations using Graph Pad Prism v5.0.
(§1) All of the reported results are the mean of three independent experiments, and those compounds showing > 50% inhibition were further analyzed for their IC50 values at different dilutions. The IC50 values were calculated by using nonlinear regression analysis and GraphPad Prism version 8. SEM = standard error mean.
The inhibition analysis of β-glucosidase was carried out, where p-nitrophenyl-β-D-glucopyranoside was used as a substrate, and the β-glucosidase from E. coli (purchased from Sigma Aldrich) was dissolved in buffer solution (pH 6.8). A total volume of 60 µL of sodium phosphate buffer, 10 µL of each test sample (dissolved in 1% DMSO), and 10 µL of enzyme (1.5 U/mL) were mixed together and incubated for 5 min at 37 °C, followed by the addition of 10 µL of p-nitrophenyl-β-D-glucopyranoside (dissolved in a buffer solution). Incubation of the mixture was carried out for 30 min, and 10 µL of 0.2 M sodium carbonate solution was subsequently added. DMSO (1%) was used as a negative control. The p-nitrophenol produced from p-nitrophenyl-β-D-glucopyranoside was measured at a λmax of 405 nm in order to evaluate the activity of the test compounds against β-glucosidase. The %inhibition of β-glucosidase was calculated by the following formula: %Inhibition=(100−sample/control×100
Graph Pad Prism v5.00 was used to find out the IC50 (concentration at which 50% of enzymatic activity was inhibited by the test sample) value from a second-order regression analysis.

HepG2 cells = experiment: MTT cell viability assay on HepG2 hepatic cancer cells; format: cell-based, human; conditions: for viability at 200 µg / IC50: Homo sapiens, HepG2, 48 h, MTT, 48 h; for viability at 200 µg: concentration of 200 µg, read-out: % viability ± SD against HepG2 cancer cell lines; for IC50: read-out: IC50 ± SEM against HepG2 cancer cell line
Description: as §1
The human liver cells were cultivated in Dulbecco’s modified Eagle medium (DMEM), in which 100 U/mL penicillin, 10% fetal bovine, and 100 µg/mL streptomycin were added and kept at 37 °C in a […] carbon dioxide-induced humidified environment. The human liver cells prepared as per the above procedure were then treated with synthesized compounds diluted to a 0.05% DMSO concentration.
By using an MTT assay, the %viability of cancer cells was evaluated. According to the standard procedure, the HepG2 cells were treated with various dosages of synthesized compounds for 48 h each. The cells were then incubated for 4 h at 37 °C with 10 μMTT reagent (5 mg/mL). Next, 150 μL of DMSO was added to dissolve the formazan crystals. The λmax was recorded at […] in a microplate reader (Thermos Scientific, Waltham, MA, USA).

Row | Compound | IC50 [1] | IC50 (HepG2 cells) | % inhibition ± SD against β-glucosidase [1] | viability at 200 µg (HepG2 cells) | β-glucosidase inhibition better than the standard ([1]; versus acarbose) | more anti-tumor activity against the HepG2 cell line than the known drug (HepG2 cells; versus thalidomide)
1 | O=C(O)c1ccc(N2C(=O)c3ccccc3C2=O)cc1 [Compound 9c] | – | – | 61.5 ±0.12% | – | – | –
2 | C[C@H]1O[C@H](O[C@H]2[C@H](O)[C@@H](O)[C@@H](O[C@H]3[C@H](O)[C@@H](O)C(O)O[C@@H]3CO)O[C@@H]2CO)[C@H](O)[C@@H](O)[C@@H]1N[C@H]1C=C(CO)[C@@H](O)[C@H](O)[C@H]1O (stereo partly shown) [Acarbose, reference compound] | 2.15 µM | – | – | – | – | –
3 | O=C(O)c1ccccc1C(=O)Nc1ccc(Cl)cc1 [Compound 4c] | – | – | 42 ± 1.42% | 26.9% | – | –
4 | O=C1c2ccccc2C(=O)N1c1ccccc1 [Compound 12c] | – | – | 45.2 ±0.4% | 27.2% | – | –
5 | Cc1c(N2C(=O)c3ccccc3C2=O)c(=O)n(-c2ccccc2)n1C [Compound 11c] | 9.57 ± 0.22 µM | – | 56.5 ± 2.45% | 40.8 ± 2.5% | – | –
6 | O=C1c2ccccc2C(=O)N1Cc1ccccc1 [Compound 6c] | – | – | 45.0 ± 1.41% | – | – | –

The next lines start with results.

Row | IC50 [1] | IC50 (HepG2 cells) | Compound | % inhibition ± SD against β-glucosidase [1] | viability at 200 µg (HepG2 cells) | β-glucosidase inhibition better than the standard ([1]; versus acarbose) | more anti-tumor activity against the HepG2 cell line than the known drug (HepG2 cells; versus thalidomide)
7 | 2.17 ± 0.11 µM | – | O=C(O)c1ccccc1C(=O)Nc1ccc([N+](=O)[O-])cc1 [Compound 2c] | 68 ± 1.41% | 29.4% | – | –
8 | 6.98 ± 0.31 µM | 12.8 ± 2.33 µM | Cc1ccc(N2C(=O)c3ccccc3C2=O)cc1 [Compound 7c] | 63.5 ± 0.71% | 21.4 ± 3.4% | – | –
9 | – | 48 ± 2.18 µM | O=C1c2ccccc2C(=O)N1c1ccccc1F [Compound 10c] | 50.5 ± 2.31% | 20.5 ± 4.2% | – | –
10 | 1.26 µM | – | O=C(O)c1ccc(NC(=O)c2ccccc2C(=O)O)cc1 [Compound 1c] | 76 ± 1.41% | 35.6% | 40% | –
11 | 1.26 ± 0.11 µM | – | O=C(O)c1ccccc1C(=O)N1CCN(CCN2C(=O)c3ccccc3C2=O)CC1 [Compound 5c] | 71 ± 1.2% | 42.2 ± 2.2% | – | –
12 | 3 ± 0.17 µM | – | O=C(O)c1ccccc1C(=O)Nc1ccc(Cl)c(C(F)(F)F)c1 [Compound 3c] | 70 ± 2.82% | 12.8% | – | greater than 9%
13 | 4.78 ± 0.27 µM | – | O=C(O)CCCCCN1C(=O)c2ccccc2C1=O [Compound 8c] | 70.5 ± 2.12% | 24.8% | – | –
